In publication PMC8800111 (The Journal of Biological Chemistry, 2021):

Assays:
[1] = test system: RNA pol II recruitment in SKBR3 cells; test: Chromatin immunoprecipitation, RNA polymerase II binding at target genes; assay type: cell-based, human; details: 10 μM 1 h, 10 ng/ml LIF 30 min
Experimental: Binding at the indicated target genes was assessed by quantitative RT–PCR. Data are expressed as percent of input.
Nuclei were centrifuged at 660g for 5 min at 4 °C and lysed in 300 μl of nuclear lysis buffer (50 mM Tris [pH 8.1], 10 mM EDTA, 1% SDS, and phosphatase and protease inhibitors). […] Lysate was then added to 60 μl of Protein A/G PLUS agarose beads (catalog no.: 2003; Santa Cruz Biotechnology) and rotated for 4 to 6 h at 4 °C. […] Beads were resuspended in 150 μl elution buffer (100 mM sodium bicarbonate and 1% SDS) and incubated overnight at 65 °C. DNA was purified using a PCR Purification Kit (Qiagen) according to the manufacturer's protocol. qPCR was performed using the indicated primers (Table S3). Results were normalized to input.

STAT3-dependent genes = test system: STAT3-dependent genes; set-up: method as in PMID 33373063; details: chronic lymphocytic leukemia; cited from earlier work
[2] = target: proteins of U3A human fibrosarcoma cells (4462 proteins detected) (Homo sapiens, UniProt Q9NYJ1); assay type: cell-based; details: protein COA4; U3A cells
Sequence of proteins of U3A human fibrosarcoma cells (4462 proteins detected) (Homo sapiens, UniProt Q9NYJ1) (Q9NYJ1 whole entry): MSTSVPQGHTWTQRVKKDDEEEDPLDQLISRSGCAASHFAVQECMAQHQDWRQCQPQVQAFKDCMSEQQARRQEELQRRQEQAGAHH

[3] = target: proteins of U3A human fibrosarcoma cells (4462 proteins detected) (Homo sapiens, UniProt O75909); assay type: cell-based; details: protein CCNK; U3A cells
Sequence of proteins of U3A human fibrosarcoma cells (4462 proteins detected) (Homo sapiens, UniProt O75909) (O75909 whole entry): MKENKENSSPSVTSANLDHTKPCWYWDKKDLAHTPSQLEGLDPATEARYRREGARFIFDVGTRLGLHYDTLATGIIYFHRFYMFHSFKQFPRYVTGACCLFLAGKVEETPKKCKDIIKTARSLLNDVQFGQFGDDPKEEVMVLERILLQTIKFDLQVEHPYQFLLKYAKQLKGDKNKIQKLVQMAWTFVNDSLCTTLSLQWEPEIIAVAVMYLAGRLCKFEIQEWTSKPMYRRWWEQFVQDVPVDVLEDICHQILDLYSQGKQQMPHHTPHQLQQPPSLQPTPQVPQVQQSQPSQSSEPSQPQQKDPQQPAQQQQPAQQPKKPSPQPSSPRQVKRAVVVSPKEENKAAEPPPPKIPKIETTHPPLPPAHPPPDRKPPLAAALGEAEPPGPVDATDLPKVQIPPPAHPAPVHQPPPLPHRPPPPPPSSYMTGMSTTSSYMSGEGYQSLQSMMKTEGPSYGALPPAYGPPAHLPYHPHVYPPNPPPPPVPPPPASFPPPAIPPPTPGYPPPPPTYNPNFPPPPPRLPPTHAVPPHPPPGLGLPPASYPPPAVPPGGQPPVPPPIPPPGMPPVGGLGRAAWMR

[4] = target: proteins of U3A human fibrosarcoma cells (4462 proteins detected) (Homo sapiens, UniProt Q96A26); assay type: cell-based; details: protein FAM162A; U3A, 10 μM, 2 h
Sequence of proteins of U3A human fibrosarcoma cells (4462 proteins detected) (Homo sapiens, UniProt Q96A26) (Q96A26 whole entry): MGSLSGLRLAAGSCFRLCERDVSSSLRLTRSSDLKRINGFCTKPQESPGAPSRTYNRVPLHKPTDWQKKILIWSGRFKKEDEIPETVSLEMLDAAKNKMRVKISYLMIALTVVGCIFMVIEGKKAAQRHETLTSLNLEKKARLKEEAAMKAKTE

[5] = target: proteins of U3A human fibrosarcoma cells (4462 proteins detected) (Homo sapiens, UniProt Q9UQR1); assay type: cell-based; details: protein ZNF148; U3A, 10 μM, 2 h
[6] = target: proteins of U3A human fibrosarcoma cells (4462 proteins detected) (Homo sapiens, UniProt P04818); assay type: cell-based; details: PISA
Sequence of proteins of U3A human fibrosarcoma cells (4462 proteins detected) (Homo sapiens, UniProt P04818) (P04818 whole entry): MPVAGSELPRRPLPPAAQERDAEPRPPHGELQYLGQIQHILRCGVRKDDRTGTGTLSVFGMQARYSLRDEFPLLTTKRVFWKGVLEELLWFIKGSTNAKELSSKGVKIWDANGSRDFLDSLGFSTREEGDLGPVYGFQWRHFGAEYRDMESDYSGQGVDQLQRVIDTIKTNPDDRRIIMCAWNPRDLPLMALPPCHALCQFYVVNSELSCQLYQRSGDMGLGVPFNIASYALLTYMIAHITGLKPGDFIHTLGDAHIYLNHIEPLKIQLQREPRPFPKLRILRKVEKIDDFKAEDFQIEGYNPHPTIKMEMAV

[7] = target: proteins of U3A human fibrosarcoma cells (4462 proteins detected) (Homo sapiens, UniProt O75351); assay type: cell-based; details: protein VPS4B; soluble abundance after heat, U3A cells
Sequence of proteins of U3A human fibrosarcoma cells (4462 proteins detected) (Homo sapiens, UniProt O75351) (O75351 whole entry): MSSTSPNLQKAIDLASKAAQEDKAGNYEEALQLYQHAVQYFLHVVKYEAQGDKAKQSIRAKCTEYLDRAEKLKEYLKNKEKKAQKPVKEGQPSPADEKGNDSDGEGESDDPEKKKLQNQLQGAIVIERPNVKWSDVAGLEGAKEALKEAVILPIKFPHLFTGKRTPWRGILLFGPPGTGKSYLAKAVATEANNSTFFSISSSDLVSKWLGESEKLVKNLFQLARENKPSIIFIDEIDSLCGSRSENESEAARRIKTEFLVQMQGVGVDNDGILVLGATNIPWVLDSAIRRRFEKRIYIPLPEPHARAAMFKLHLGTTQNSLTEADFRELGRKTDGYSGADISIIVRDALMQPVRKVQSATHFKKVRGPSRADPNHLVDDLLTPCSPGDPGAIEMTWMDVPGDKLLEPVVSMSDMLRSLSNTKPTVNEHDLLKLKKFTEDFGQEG

[8] = target: proteins of U3A human fibrosarcoma cells (4462 proteins detected) (Homo sapiens, UniProt Q9BUL8); assay type: cell-based; details: protein PDCD10; soluble abundance after heat, U3A cells
[9] = target: proteins of U3A human fibrosarcoma cells (4462 proteins detected) (Homo sapiens, UniProt P25787); assay type: cell-based; details: protein PSMA2, U3A cells
Sequence of proteins of U3A human fibrosarcoma cells (4462 proteins detected) (Homo sapiens, UniProt P25787) (P25787 whole entry): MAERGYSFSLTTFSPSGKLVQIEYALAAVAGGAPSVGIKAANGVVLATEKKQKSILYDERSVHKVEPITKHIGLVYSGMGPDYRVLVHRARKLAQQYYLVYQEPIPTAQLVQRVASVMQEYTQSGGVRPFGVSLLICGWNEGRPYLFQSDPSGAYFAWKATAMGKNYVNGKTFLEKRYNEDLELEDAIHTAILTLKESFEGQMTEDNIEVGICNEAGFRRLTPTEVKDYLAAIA

[10] = target: proteins of U3A human fibrosarcoma cells (4462 proteins detected) (Homo sapiens, UniProt Q16626); assay type: cell-based; details: protein MEA1, U3A cells
[11] = target: proteins of U3A human fibrosarcoma cells (4462 proteins detected) (Homo sapiens, UniProt Q15051); assay type: cell-based; details: protein IQCB1; U3A, 10 μM, 2 h
Sequence of proteins of U3A human fibrosarcoma cells (4462 proteins detected) (Homo sapiens, UniProt Q15051) (Q15051 whole entry): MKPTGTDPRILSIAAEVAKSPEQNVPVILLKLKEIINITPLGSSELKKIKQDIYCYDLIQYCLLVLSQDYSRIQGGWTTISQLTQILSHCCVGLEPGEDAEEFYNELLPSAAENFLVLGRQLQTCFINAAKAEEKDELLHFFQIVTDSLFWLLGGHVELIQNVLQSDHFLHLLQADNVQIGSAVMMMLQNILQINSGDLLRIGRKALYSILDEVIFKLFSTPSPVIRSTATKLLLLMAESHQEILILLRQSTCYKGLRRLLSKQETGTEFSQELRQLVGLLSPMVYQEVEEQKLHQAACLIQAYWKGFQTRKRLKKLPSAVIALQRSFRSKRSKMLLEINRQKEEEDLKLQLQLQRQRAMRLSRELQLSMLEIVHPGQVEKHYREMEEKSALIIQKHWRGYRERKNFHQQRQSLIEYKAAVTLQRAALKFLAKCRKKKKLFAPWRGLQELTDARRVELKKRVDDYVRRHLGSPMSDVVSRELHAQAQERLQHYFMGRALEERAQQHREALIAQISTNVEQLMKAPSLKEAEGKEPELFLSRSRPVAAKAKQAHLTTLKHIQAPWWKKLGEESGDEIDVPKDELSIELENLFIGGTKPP

[12] = target: proteins of U3A human fibrosarcoma cells (4462 proteins detected) (Homo sapiens, UniProt Q99661); assay type: cell-based; details: protein KIF2C; U3A cells
Sequence of proteins of U3A human fibrosarcoma cells (4462 proteins detected) (Homo sapiens, UniProt Q99661) (Q99661 whole entry): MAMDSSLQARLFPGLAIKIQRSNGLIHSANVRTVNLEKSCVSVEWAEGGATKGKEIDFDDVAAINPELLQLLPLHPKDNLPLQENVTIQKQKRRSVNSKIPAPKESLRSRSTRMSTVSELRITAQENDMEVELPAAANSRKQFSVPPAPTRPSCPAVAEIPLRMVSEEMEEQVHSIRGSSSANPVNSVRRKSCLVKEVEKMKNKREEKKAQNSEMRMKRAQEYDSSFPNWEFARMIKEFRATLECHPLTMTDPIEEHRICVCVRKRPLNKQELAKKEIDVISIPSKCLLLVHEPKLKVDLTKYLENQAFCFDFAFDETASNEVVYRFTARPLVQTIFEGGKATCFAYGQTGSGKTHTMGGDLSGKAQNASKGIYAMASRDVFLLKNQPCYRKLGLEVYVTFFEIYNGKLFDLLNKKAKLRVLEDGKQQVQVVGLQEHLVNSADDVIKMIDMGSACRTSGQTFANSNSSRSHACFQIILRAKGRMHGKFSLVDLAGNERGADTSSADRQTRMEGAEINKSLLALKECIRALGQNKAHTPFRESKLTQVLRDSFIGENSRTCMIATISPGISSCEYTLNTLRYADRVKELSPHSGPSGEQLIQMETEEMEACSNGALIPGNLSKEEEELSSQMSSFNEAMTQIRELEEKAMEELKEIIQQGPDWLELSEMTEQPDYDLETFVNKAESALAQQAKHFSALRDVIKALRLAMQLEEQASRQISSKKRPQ

[13] = target: proteins of U3A human fibrosarcoma cells (4462 proteins detected) (Homo sapiens, UniProt P61081); assay type: cell-based; details: protein UBE2M; U3A cells
[14] = target: proteins of U3A human fibrosarcoma cells (4462 proteins detected) (Homo sapiens, UniProt Q96CB9); assay type: cell-based; details: protein NSUN4; U3A cells
Sequence of proteins of U3A human fibrosarcoma cells (4462 proteins detected) (Homo sapiens, UniProt Q96CB9) (Q96CB9 26-384): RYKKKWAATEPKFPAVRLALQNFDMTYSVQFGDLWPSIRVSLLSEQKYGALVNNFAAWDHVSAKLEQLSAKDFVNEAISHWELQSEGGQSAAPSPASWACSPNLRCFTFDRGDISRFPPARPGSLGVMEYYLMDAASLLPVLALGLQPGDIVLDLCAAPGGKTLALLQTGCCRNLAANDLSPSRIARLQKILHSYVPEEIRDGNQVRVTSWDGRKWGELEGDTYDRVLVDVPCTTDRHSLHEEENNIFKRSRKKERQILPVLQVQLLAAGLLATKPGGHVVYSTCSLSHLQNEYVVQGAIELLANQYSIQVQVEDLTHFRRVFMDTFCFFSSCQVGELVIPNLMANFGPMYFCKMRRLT

[15] = target: proteins of U3A human fibrosarcoma cells (4462 proteins detected) (Homo sapiens, UniProt O75635); assay type: cell-based; details: protein SERPINB7; U3A, 10 μM, 2 h
Sequence of proteins of U3A human fibrosarcoma cells (4462 proteins detected) (Homo sapiens, UniProt O75635) (O75635 whole entry): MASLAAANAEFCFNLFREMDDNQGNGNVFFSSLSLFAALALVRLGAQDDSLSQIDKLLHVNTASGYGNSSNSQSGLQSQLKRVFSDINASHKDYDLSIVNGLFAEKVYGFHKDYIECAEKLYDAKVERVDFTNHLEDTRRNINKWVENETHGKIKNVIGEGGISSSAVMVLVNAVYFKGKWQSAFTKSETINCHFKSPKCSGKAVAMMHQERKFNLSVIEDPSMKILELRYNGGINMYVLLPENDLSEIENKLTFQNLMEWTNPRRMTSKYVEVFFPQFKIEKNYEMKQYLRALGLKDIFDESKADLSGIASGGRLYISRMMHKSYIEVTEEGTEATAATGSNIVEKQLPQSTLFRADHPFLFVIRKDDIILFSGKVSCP

[16] = target: proteins of U3A human fibrosarcoma cells (4462 proteins detected) (Homo sapiens, UniProt Q9BQG0); assay type: cell-based; details: protein MYBBP1A; U3A, 10 μM, 2 h
[17] = target: proteins of U3A human fibrosarcoma cells (4462 proteins detected) (Homo sapiens, UniProt Q53FT3); assay type: cell-based; details: protein C11orf73; U3A, 10 μM, 2 h
Sequence of proteins of U3A human fibrosarcoma cells (4462 proteins detected) (Homo sapiens, UniProt Q53FT3) (Q53FT3 whole entry): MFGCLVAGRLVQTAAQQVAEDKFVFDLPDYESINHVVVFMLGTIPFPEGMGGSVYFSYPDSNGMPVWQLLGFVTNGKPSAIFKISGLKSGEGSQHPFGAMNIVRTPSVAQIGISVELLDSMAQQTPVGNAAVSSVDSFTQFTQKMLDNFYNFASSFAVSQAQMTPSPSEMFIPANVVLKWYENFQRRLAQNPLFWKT

[18] = target: proteins of U3A human fibrosarcoma cells (4462 proteins detected) (Homo sapiens, UniProt P17844); assay type: cell-based; details: protein DDX5; U3A cells
[19] = target: proteins of U3A human fibrosarcoma cells (4462 proteins detected) (Homo sapiens, UniProt P50990); assay type: cell-based; details: protein CCT8; U3A cells
Sequence of proteins of U3A human fibrosarcoma cells (4462 proteins detected) (Homo sapiens, UniProt P50990) (P50990 whole entry): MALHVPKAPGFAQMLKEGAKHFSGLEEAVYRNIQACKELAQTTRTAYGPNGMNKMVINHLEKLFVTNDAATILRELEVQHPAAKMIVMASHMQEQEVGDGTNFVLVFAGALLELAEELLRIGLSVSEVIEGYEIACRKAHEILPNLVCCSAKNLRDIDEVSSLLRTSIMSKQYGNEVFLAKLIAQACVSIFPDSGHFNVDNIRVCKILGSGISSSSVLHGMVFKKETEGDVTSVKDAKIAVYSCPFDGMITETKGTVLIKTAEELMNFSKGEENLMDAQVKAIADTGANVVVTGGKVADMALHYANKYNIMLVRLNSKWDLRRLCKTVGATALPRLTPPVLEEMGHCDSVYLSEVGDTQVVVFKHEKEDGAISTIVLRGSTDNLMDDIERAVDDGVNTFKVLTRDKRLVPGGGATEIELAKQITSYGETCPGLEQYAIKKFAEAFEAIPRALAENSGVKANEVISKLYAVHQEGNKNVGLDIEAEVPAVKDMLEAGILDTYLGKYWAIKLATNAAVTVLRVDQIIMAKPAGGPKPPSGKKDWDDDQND

[20] = target: proteins of U3A human fibrosarcoma cells (4462 proteins detected) (Homo sapiens, UniProt O75663); assay type: cell-based; details: protein TIPRL; soluble abundance after heat, U3A cells
[21] = target: proteins of U3A human fibrosarcoma cells (4462 proteins detected) (Homo sapiens, UniProt O14972); assay type: cell-based; details: protein DSCR3; U3A, 10 μM, 2 h
Sequence of proteins of U3A human fibrosarcoma cells (4462 proteins detected) (Homo sapiens, UniProt O14972) (O14972 whole entry): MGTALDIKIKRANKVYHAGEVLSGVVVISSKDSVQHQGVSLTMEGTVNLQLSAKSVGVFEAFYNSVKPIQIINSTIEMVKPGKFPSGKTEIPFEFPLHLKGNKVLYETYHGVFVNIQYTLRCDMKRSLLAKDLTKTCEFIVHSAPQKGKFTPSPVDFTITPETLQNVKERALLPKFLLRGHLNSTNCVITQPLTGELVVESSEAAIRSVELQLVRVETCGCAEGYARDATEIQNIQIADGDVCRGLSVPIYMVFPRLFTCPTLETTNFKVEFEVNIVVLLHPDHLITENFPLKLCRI

CCc1nc(N)nc(N)c1-c1ccc(Cl)cc1 [pyrimethamine]
pol II recruitment at BCL6 [1]: complete loss | inhibition of expression of STAT3-dependent genes in patients (STAT3-dependent genes): on-target activity | Log2 (PYR/DMSO) [2]: 0.18 | Log2 (PYR/DMSO) [3]: 0.22 | Log2 (PYR/DMSO), FAM162A [4]: -0.37 | Log2 (PYR/DMSO), ZNF148 [5]: 0.26 | engagement of TS (thymidylate synthase) [6]: no engagement | Log2 (PYR/DMSO) [7]: 0.14 | Log2 (PYR/DMSO) [8]: 0.15 | Log2 (PYR/DMSO) [9]: -0.03 | Log2 (PYR/DMSO) [10]: -0.04 | Log2 (PYR/DMSO), IQCB1 [11]: -0.16 | Log2 (PYR/DMSO) [12]: 0.17 | Log2 (PYR/DMSO) [13]: 0.19 | Log2 (PYR/DMSO) [14]: 0.16 | Log2 (PYR/DMSO), SERPINB7 [15]: -0.19 | Log2 (PYR/DMSO), MYBBP1A [16]: 0.26 | Log2 (PYR/DMSO), C11orf73 [17]: 0.28 | Log2 (PYR/DMSO) [18]: 0.19 | Log2 (PYR/DMSO) [19]: 0.16 | Log2 (PYR/DMSO) [20]: 0.14 | Log2 (PYR/DMSO), DSCR3 [21]: -0.16
